These results are taken from patent publication US5504103A, “Inhibition of phosphatidylinositol 3-kinase with 17 β-hydroxywortmannin and analogs thereof” (Eli Lilly and Company, priority 1993, dated 1996).

Read-outs that look alike come from different tables or passages of the source.

The target in test [1] is bovine brain purified PI 3-kinase. The test can be described thus: Assay of purified PI 3-kinase activity (32P incorporation into phosphatidylinositol, TLC/scintillation). In kind it is biochemical. As to the method:
In another, preferred, method, PI 3-kinase was prepared from bovine brain. Two bovine brains (wet weight about 900 g) were obtained from a local slaughterhouse within minutes of slaughter, packed on ice, and homogenized within one hour. Brains were trimmed of excess fat and blood vessels and then homogenized using a Tekmar Tissuemizer (Cincinnati, Ohio) at 4° C. in 20 mM of Tris(pH 8.3) containing 250 mM of sucrose, 6 mM of β-mercaptoethanol, 1 μg/ml of leupeptin, 1 μg/ml of pepstatin A, 0.4 mM of PMSF, and 1 mM of MgCl2.
Following centrifugation for 60 minutes at 10,000×g, the pH of the supernatant (about 1200 mL) was lowered to 5.75 using dropwise addition of 1M acetic acid at 4° C. After stirring for an additional 15 minutes at 4° C., the solution was centrifuged for 60 minutes at 13,500×g. The supernatant was discarded. Pellets were resuspended in Buffer A (20 mM of Tris, pH 8.3, containing 6 mM of β-mercaptoethanol, 0.1 mM of ethylene glycol-bis(β-aminoethyl ether) N,N,N',N'-tetraacetic acid (EGTA), 1 μg/mL of leupeptin, 1 μg/mL of pepstatin A, and 1 mM of MgCl2), and loaded onto a Fast Flow Q Sepharose column (300 ml) at a flow rate of 5 mL/min at 4° C. […]
PI 3-kinase activity was measured as previously described by Matter, W. F., et al., Biochemical and Biophysical Research Communications, 186: 624-631 (1992). […]

For test [2], the system named is PI 4-kinase. The test can be described thus: Effect on PI 4-kinase. In kind it is biochemical.

Turning to `COC[C@H]1OC(=O)c2coc3c2[C@@]1(C)C1=C(C3=O)[C@@H]2CC[C@H](O)[C@@]2(C)C[C@H]1OC(C)=O` [17β-hydroxywortmannin], the half-maximal inhibitory concentration (IC50) in test [1] was determined as 0.2 ng/mL; in test [1] (molar value printed in parentheses, read-out: IC50) it was 0.46 nM. Further, the “effect on PI 4-kinase” value in test [2] is given as “no effect”.

For orientation: IC50 means the midpoint of a concentration-inhibition curve.
